Experiments:
[1] = tested on: client-owned dogs with persistent pathologic renal proteinuria due to CKD; test: Prospective, block-randomized, double-blind clinical trial of telmisartan versus enalapril; UPC measurement (phases I-III); format: in vivo, dog; settings: for Average of UPC change day 30 / Average of UPC change day 60 / Average of UPC change day 90: change from baseline; for Average of UPC change day 30: day 30, all dogs; for Average of UPC change day 60: day 60, all dogs; for Average of UPC change day 60 / Average of UPC change day 90: up-titration allowed; for Average of UPC change day 90: day 90, all dogs; for proportion of dogs that experienced 50% reduction in UPC at day 30: telmisartan 1 mg/kg PO q 24 h, enalapril 0.5 mg/kg PO q 12 h, 16/20 versus 5/17 dogs, P=0.003; for Average of UPC change in dogs with added drug at Day 90, day 120: the other drug additionally administered between day 90 and day 120; for Average of percent UPC change day 30 / Average of percent UPC change day 60 / Average of percent UPC change day 90 / Average of percent UPC change day 120: percent change from baseline; for Average of percent UPC change day 120: the other drug (telmisartan or enalapril) additionally administered between day 90 and day 120
Source text: Experimental Methods and Design. A prospective, block-randomized, double-blind clinical trial has been carried out. Fifty-four client-owned dogs with persistent pathologic renal proteinuria have been recruited over a 2-year period.
Animals. Azotemic and non-azotemic dogs (N=54) with hypertensive and non-hypertensive CKD have been recruited prospectively from patients presented to the hospital. Dogs included as cases will have confirmed persistent pathologic renal proteinuria due to CKD; in order to be classified as such, fulfillment of the criteria described below will be required.
Inclusion criteria. […] Abdominal ultrasound findings consistent with CKD (bilaterally small, irregular kidneys) and absence of renal neoplasia have also been documented.
Exclusion criteria. […] Dogs with suspected or confirmed hyper-adrenocorticism and diabetes mellitus have been included if their disease is considered well controlled with medical therapy.
Patient grouping for block randomization: Once included in the study and based on the presence/degree of azotemia, dogs have been grouped according to the International Renal Interest Society (IRIS) classification scheme for CKD. Those classified as IRIS stages 2-4 (serum creatinine ≥1.4 mg/dL with inappropriately dilute urine [USG<1.030]) have been considered azotemic (AZ), and those classified as IRIS stage 1 (creatinine <1.4 mg/dL) have been considered non-azotemic (non-AZ). Within each of these two groups, dogs will then be stratified according to IRIS recommendations for arterial pressure (AP) substaging. According to this scheme, dogs with persistent average indirect arterial systolic BP<150 mm Hg will be classified as AP0 (minimal risk for target organ damage). Those with persistent average indirect arterial systolic BP150 mm Hg have been classified as AP1-3 (at risk for target organ damage). Four groups will thus be identified:
Baseline. On inclusion (day 0), all owners have been required to read/sign a form consenting to their pets' participation in the study. The following baseline data have been collected for each case: full physical examination (performed by one of the study investigators), fundic examination, blood pressure measurement, serum chemistry panel, urinalysis, abdominal ultrasound, UPC and urine culture. The results of screening tests, if performed within 2 weeks of inclusion in the study, may be used as baseline information. Baseline UPC has been defined as the average of two measurements, taken 2 weeks apart, prior to enrollment.
ARB/ACEi therapy. […] Owners have been provided with appropriate contact numbers in the event of an emergency.
Antihypertensive/other therapy. For dogs that are classified as AP3 (SBP180 mmHg; 200 mmHg in sighthounds), a calcium channel blocker (CCB; amlodipine, 0.1 mg/kg PO q 24 hours) has been administered contemporaneously. […] All dogs have been started or maintained on a commercially available diet formulated to be low in phosphorus and protein, for at least 1 month prior to enrollment.
Monitoring: The monitoring protocol followed the recommendations of the IRIS Canine GN Study Group Standard Therapy Subgroup. All dogs have been rechecked on day 7, at which time physical examination, SBP, serum creatinine (sCr) and serum potassium (K) have been evaluated. An increase in sCr of >30% compared to baseline or identification of moderate/severe hyperkalemia (serum K>6.5 mmol/L) or systolic hypotension (SBP<120) has prompt the investigator unmasking and removal of the patient from the study. For dogs in which average SBP of approximately 180 mm Hg was reliably identified (i.e. dogs classified as AP3), amlodipine will be up-titrated to 0.1 mg/kg PO BID. Thereafter, dogs classified as AP3 have been rechecked at 7-day intervals to ensure efficacy of therapy with adjustment of antihypertensive therapy.

[2] = tested on: naturally occurring proteinuria; settings: cited from earlier work
[3] = dogs without added drug at day 90

Row | SMILES | Average of UPC change day 30 [1] | Average of UPC change day 60 [1] | Average of UPC change day 90 [1] | proportion of dogs that experienced 50% reduction in UPC at day 30 [1] | Average of UPC change in dogs with added drug at Day 90, day 30 [1] | Average of UPC change in dogs with added drug at Day 90, day 60 [1] | Average of UPC change in dogs with added drug at Day 90, day 90 [1] | Average of UPC change in dogs with added drug at Day 90, day 120 ([1]; day 120) | Average of UPC change in dogs without added drug at Day 90, day 30 [1, 3] | Average of UPC change in dogs without added drug at Day 90, day 60 [1, 3] | Average of UPC change in dogs without added drug at Day 90, day 90 [1, 3] | Average of percent UPC change day 30 [1] | Average of percent UPC change day 60 [1] | Average of percent UPC change day 90 [1] | Average of percent UPC change day 120 ([1]; day 120) | Average of UPC change in dogs without added drug at Day 90, day 120 ([1]; dogs without added drug at day 90, day 120) | subjects experiencing an increase in proteinuria despite therapy ([2]; 3/14 subjects) | subjects with clinically significant (i.e., 50%) reduction in proteinuria ([2]; 9/14 subjects)
1 | CCCc1nc2c(C)cc(-c3nc4ccccc4n3C)cc2n1Cc1ccc(-c2ccccc2C(=O)O)cc1 [Telmisartan, telmisartan] | −2,516 | −3.769 | −4.341 | 80% | −4.20 | −4.83 | −4.83 | −5.84 | −1.82 | −2.81 | −2.01 | −57.01% | −65.87% | −68.79% | −76.70^2% | – | – | –
2 | CCOC(=O)[C@H](CCc1ccccc1)N[C@@H](C)C(=O)N1CCC[C@H]1C(=O)O [Enalapril, enalapril] | −1.075 | −1.260 | −1.194 | 29.4% | −0.30 | −0.79 | −1.05 | −2.97 | −0.71 | −1.02 | −0.68 | −27.34% | −37.56% | −30.57% | −75.14^1% | −0.92 | 22% | 64%
